Data: US7943175B2, “Calixarene based dispersible colloidal systems in the form of nanoparticles” (Nanoport S.A., priority 2001, dated 2011)

System: embryo insect cells (trichiopusia ni)
Assay: Toxicity test on embryo insect cells
Assay type: cell-based
Excerpt: Second, p-dodecanoyl-calix[4]arene has been tested on embryo insect cells (trichiopusia ni). Viability values of more than 80% have been found.

## CCCCCCCCCCCC(=O)c1cc2c(O)c(c1)Cc1cc(C(=O)CCCCCCCCCCC)cc(c1O)Cc1cc(C(=O)CCCCCCCCCCC)cc(c1O)Cc1cc(C(=O)CCCCCCCCCCC)cc(c1O)C2 [p-dodecanoyl-calix[4]arene]
  Viability: more than 80%
